Consider six compounds from US10633337B2, “Crystal forms of a 9-aminomethyl substituted tetracycline compound and a preparation method thereof” (KBP Biosciences Co., Ltd., priority 2016, dated 2020).

What all share (type): physicochemical
Data set [1] in a line: Assay 2: stability (influencing factor tests) of crystal form II and crystal form IV; content by HPLC. The settings on record: for stability (conclusion in words): high temperature, high humidity and illumination. The method, then:
Assay 2: Stability for Crystal Form II and Crystal Form IV of the Present Compound
Tested sample: crystal form II and crystal form IV of the compound represented by formula (1) were prepared according to Examples;
(§1) Test Conditions for Investigating the Influencing Factors:
High temperature tests: crystal form II and crystal form IV of the compound represented by formula (1) were laid on a dry and clean watch glass, and kept at 60° C.±5° C. for 15 days. Samples were taken respectively on Day 5 and Day 15. The content and the purity of the compound represented by formula (1) were measured, and compared with those of the sample taken on Day 0.
High humidity test: crystal form II and crystal form IV of the compound represented by formula (1) were laid on a dry and clean watch glass, and kept at 25° C.±2° C., RH92.5%±5%, 25° C.±2° C., RH75%±5%, 40° C.±2° C., RH75%±5% for 15 days. Samples were taken respectively on Day 5 and Day 15. The content and the purity of the compound represented by formula (1) were measured, and compared with those of the sample taken on Day 0.
Illumination test: crystal form II and crystal form IV of the compound represented by formula (1) were laid on a dry and clean watch glass, and kept at an illuminance of 4500 Lx±500 Lx in an illumination box for 15 days. Samples were taken respectively on Day 5 and Day 15. The content and the purity of the compound represented by formula (1) were measured, and compared with those of the sample taken on Day 0.
(§2) Content: it was measured by using an external standard method in accordance with the High Performance Liquid Chromatography in Chinese Pharmacopoeia, Appendix V D, Edition 2010.
(§3) Purity: it was measured by using an area normalization method in accordance with the High Performance Liquid Chromatography in Chinese Pharmacopoeia, Appendix V D, Edition 2010.

Data set [2] can be described thus: Assay 1: stability (influencing factor tests: high temperature, high humidity, illumination) of amorphous form and crystal forms I, II, VII; content and purity by HPLC. The settings on record: for stability (conclusion in words): high temperature, high humidity and illumination. The method, then:
Assay 1: Stability for Amorphous Form and Crystal Forms of the Present Compound
Tested sample: amorphous form, crystal form I, crystal form II, and crystal form VII of the compound represented by formula (1) were prepared according to Examples;
as §1
High temperature tests: amorphous form, crystal form I, crystal form II, and crystal form VII of the compound represented by formula (1) were laid on a dry and clean watch glass, and kept at 60° C.±5° C. for 14 days. Samples were taken respectively on Day 7 and Day 14. The content and the purity of the compound represented by formula (1) were measured, and compared with those of the sample taken on Day 0.
High humidity test: amorphous form, crystal form I, crystal form II, and crystal form VII of the compound represented by formula (1) were laid on a dry and clean watch glass, and kept at 25° C.±2° C., RH75%±5%, 40° C.±2° C., RH75%±5% for 14 days. Samples were taken respectively on Day 7 and Day 14. The content and the purity of the compound represented by formula (1) were measured, and compared with those of the sample taken on Day 0.
Illumination test: amorphous form, crystal form I, crystal form II, and crystal form VII of the compound represented by formula (1) were laid on a dry and clean watch glass, and kept at an illuminance of 4500 Lx±500 Lx in an illumination box for 14 days. Samples were taken respectively on Day 7 and Day 14. The content and the purity of the compound represented by formula (1) were measured, and compared with those of the sample taken on Day 0.
as §2, §3

Data set [3] in a line: Investigation of the stability of crystal form III at high humidity. As to the method:
It is also found in the study that not all of crystal forms I, II, III, IV, V, VI, VII and VIII of the compound represented by formula (1) have better stability than the amorphous form. Specifically, in the investigation of the stability of crystal form III, the content of the compound is reduced by about 10% after being placed in a high humidity condition of 40° C./75%±5% RH for 14 days.
The data for investigating the stability was mentioned as above.

The mark [4] stands for this setting: Day 0 (start of stability test).
Setting [5] is: High temperature 60° C., Day 14.
Where [6] appears, read: Illumination 45001x ± 5001x, Day 14.

Molecules are shown by their SMILES.

Regarding `CN(C)c1cc(CN2CC3CC3C2)c(O)c2c1C[C@H]1C[C@H]3[C@H](N(C)C)C(O)=C(C(N)=O)C(=O)[C@@]3(O)C(O)=C1C2=O` (single isomer, unassigned) [Crystal form II], the Content in data set [1] (25° C./RH 75% ± 5%, Day 15) is listed as 98.3%; in data set [1] (25° C./RH 92.5% ± 5%, Day 15) it was 96.7%; in data set [1] (40° C./RH 75% ± 5%, Day 15), 98.0%; in data set [1] (60° C., Day 15), 97.0%; in data set [1] (4500 Lx ± 500 Lx, Day 15), 97.8%; in data set [1] (setting [4]), 98.4%. Besides, the Content in data set [2] (25° C./75% ± 5% RH, Day 7) stood at 95.9%; in data set [2] (25° C./75% ± 5% RH, Day 14), 96.1%; in data set [2] (40° C./75% ± 5% RH, Day 7), 96.5%; in data set [2] (40° C./75% ± 5% RH, Day 14), 96.1%; in data set [2] (setting [4]) it was 94.5%; in data set [2] (High temperature 60° C., Day 7), 95.8%. The Content in data set [2] (setting [5]) turned out to be 96.0%; in data set [2] (setting [6]), 96.1%. The “stability (conclusion in words)” value in data set [1] was “higher stability than crystal form IV”; in data set [2], “relatively high stability”. In addition, the Purity was found to be 96.3% in data set [2] (25° C./75% ± 5% RH, Day 7); 96.2% in data set [2] (25° C./75% ± 5% RH, Day 14); 96.2% in data set [2] (40° C./75% ± 5% RH, Day 7); 96.1% in data set [2] (40° C./75% ± 5% RH, Day 14); 96.4% in data set [2] (setting [4]); 96.1% in data set [2] (High temperature 60° C., Day 7). The figures for the Purity in data set [2] (setting [5]) and in data set [2] (setting [6]) were 96.0% and 96.2%, respectively.

As to `CN(C)c1cc(CN2CC3CC3C2)c(O)c2c1C[C@H]1C[C@H]3[C@H](N(C)C)C(O)=C(C(N)=O)C(=O)[C@@]3(O)C(O)=C1C2=O` (single isomer, unassigned) [Crystal form IV], the Content in data set [1] (25° C./RH 75% ± 5%, Day 15) worked out at 93.1%; in data set [1] (25° C./RH 92.5% ± 5%, Day 15), 90.3%; in data set [1] (40° C./RH 75% ± 5%, Day 15), 74.6%; in data set [1] (60° C., Day 15), 88.6%; in data set [1] (4500 Lx ± 500 Lx, Day 15) it was 74.6%; in data set [1] (setting [4]), 97.0%. The reduction of content result was “about 10%” in data set [1] (high temperature of 60° C. for 15 days) and 23.1% in data set [1] (illumination 4500 Lx±500 Lx for 15 days). In data set [1], the “stability (conclusion in words)” value is “changed very much”. Besides, the “stability compared with amorphous form” value in data set [1] (illumination condition or high temperature condition) is “worse stability than the amorphous form”.

As to `CN(C)c1cc(CN2CC3CC3C2)c(O)c2c1C[C@H]1C[C@H]3[C@H](N(C)C)C(O)=C(C(N)=O)C(=O)[C@@]3(O)C(O)=C1C2=O` (stereo partly drawn) [Amorphous form, (4S,4aS,5aR,12aS)-9-(3-azabicyclo[3.1.0]hexan-3-ylmethyl)-4,7-bis(dimethylamino)-3,10,12,12a-tetrahydroxy-1,11-dioxo-1,4,4a,5,5a,6,11,12a-octahydrotetracene-2-carboxamide], the Content in data set [2] (25° C./75% ± 5% RH, Day 7) was determined as 98.7%; in data set [2] (25° C./75% ± 5% RH, Day 14), 93.3%; in data set [2] (40° C./75% ± 5% RH, Day 7) it was 94.7%; in data set [2] (40° C./75% ± 5% RH, Day 14), 89.6%; in data set [2] (setting [4]), 97.1%; in data set [2] (High temperature 60° C., Day 7), 94.5%. Further, the Content came to 90.5% in data set [2] (setting [5]) and 85.0% in data set [2] (setting [6]). Further, the Purity was 97.1% in data set [2] (25° C./75% ± 5% RH, Day 7); 96.7% in data set [2] (25° C./75% ± 5% RH, Day 14); 94.9% in data set [2] (40° C./75% ± 5% RH, Day 7); 92.9% in data set [2] (40° C./75% ± 5% RH, Day 14); 98.0% in data set [2] (setting [4]); 95.8% in data set [2] (High temperature 60° C., Day 7). In addition, the figures for the Purity in data set [2] (setting [5]) and in data set [2] (setting [6]) were 94.3% and 92.9%, respectively. Further, the reduction of content in data set [2] (after 14 days at a high temperature of 60° C.) is reported as 6.6%; in data set [2] (after 14 days at high humidity 40° C./75%±5% RH), 7.5%; in data set [2] (after 14 days under illumination of 4500 lx±500 lx), 12.1%. Further, the “stability (conclusion in words)” value in data set [2] is “unstable”.

Take `CN(C)c1cc(CN2CC3CC3C2)c(O)c2c1C[C@H]1C[C@H]3[C@H](N(C)C)C(O)=C(C(N)=O)C(=O)[C@@]3(O)C(O)=C1C2=O` (stereo partly drawn) [Crystal form I, (4S,4aS,5aR,12aS)-9-(3-azabicyclo[3.1.0]hexan-3-ylmethyl)-4,7-bis(dimethylamino)-3,10,12,12a-tetrahydroxy-1,11-dioxo-1,4,4a,5,5a,6,11,12a-octahydrotetracene-2-carboxamide]: the Content is given as 97.2% in data set [2] (25° C./75% ± 5% RH, Day 7); 98.2% in data set [2] (25° C./75% ± 5% RH, Day 14); 97.4% in data set [2] (40° C./75% ± 5% RH, Day 7); 97.5% in data set [2] (40° C./75% ± 5% RH, Day 14); 97.0% in data set [2] (setting [4]); 97.7% in data set [2] (High temperature 60° C., Day 7). The Content in data set [2] (setting [5]) came to 97.3%; in data set [2] (setting [6]), 97.8%. The Purity in data set [2] (25° C./75% ± 5% RH, Day 7) is listed as 98.1%; in data set [2] (25° C./75% ± 5% RH, Day 14), 98.1%; in data set [2] (40° C./75% ± 5% RH, Day 7) it was 98.0%; in data set [2] (40° C./75% ± 5% RH, Day 14), 97.8%; in data set [2] (setting [4]) it was 98.2%; in data set [2] (High temperature 60° C., Day 7), 97.9%. Further, the Purity was 97.7% in data set [2] (setting [5]) and 98.1% in data set [2] (setting [6]). In addition, the “stability (conclusion in words)” value in data set [2] is “relatively high stability”.

For the compound `CN(C)c1cc(CN2CC3CC3C2)c(O)c2c1C[C@H]1C[C@H]3[C@H](N(C)C)C(O)=C(C(N)=O)C(=O)[C@@]3(O)C(O)=C1C2=O` (stereo partly drawn) [Crystal form III, (4S,4aS,5aR,12aS)-9-(3-azabicyclo[3.1.0]hexan-3-ylmethyl)-4,7-bis(dimethylamino)-3,10,12,12a-tetrahydroxy-1,11-dioxo-1,4,4a,5,5a,6,11,12a-octahydrotetracene-2-carboxamide], the reduction of content result in data set [3] (high humidity 40° C./75%±5% RH for 14 days) is given as “about 10%”. In addition, the “stability compared with amorphous form” value in data set [3] (high humidity condition) is listed as “worse stability than the amorphous form”.

As for `CN(C)c1cc(CN2CC3CC3C2)c(O)c2c1C[C@H]1C[C@H]3[C@H](N(C)C)C(O)=C(C(N)=O)C(=O)[C@@]3(O)C(O)=C1C2=O` (stereo partly drawn) [Crystal form VII, (4S,4aS,5aR,12aS)-9-(3-azabicyclo[3.1.0]hexan-3-ylmethyl)-4,7-bis(dimethylamino)-3,10,12,12a-tetrahydroxy-1,11-dioxo-1,4,4a,5,5a,6,11,12a-octahydrotetracene-2-carboxamide], the Content came to 96.1% in data set [2] (25° C./75% ± 5% RH, Day 7); 95.8% in data set [2] (25° C./75% ± 5% RH, Day 14); 94.6% in data set [2] (40° C./75% ± 5% RH, Day 7); 94.5% in data set [2] (40° C./75% ± 5% RH, Day 14); 95.8% in data set [2] (setting [4]); 95.2% in data set [2] (High temperature 60° C., Day 7). The Content in data set [2] (setting [5]) is given as 93.6%; in data set [2] (setting [6]), 95.7%. Besides, the Purity in data set [2] (25° C./75% ± 5% RH, Day 7) is reported as 97.1%; in data set [2] (25° C./75% ± 5% RH, Day 14) it was 97.2%; in data set [2] (40° C./75% ± 5% RH, Day 7), 96.4%; in data set [2] (40° C./75% ± 5% RH, Day 14), 95.7%; in data set [2] (setting [4]) it was 97.4%; in data set [2] (High temperature 60° C., Day 7) it was 96.8%. Further, the Purity in data set [2] (setting [5]) is on record as 96.2%; in data set [2] (setting [6]), 96.6%. The “stability (conclusion in words)” value in data set [2] is on record as “relatively high stability”.
